Results: patent US20180273531A1, “PYRIMIDINE COMPOUND AND MEDICAL USE THEREOF” (Japan Tobacco Inc., priority 2004, published 2018)

What was measured:
Format in all cases: cell-based
[1] = test system: colorectal cancer cell line HT-29 cells; test: Growth inhibitory effect against cancer cell lines (3H-thymidine uptake), HT-29; conditions: Homo sapiens, HT-29, inhibition of 3H-thymidine uptake; test substance 18 hrs, then 3H-thymidine 6 hrs; triplicate
Outline: (§1)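 IC50 = concentration reducing ^3H-thymidine incorporation to 50% of DMSO control, measured in triplicate. Compound added 24 hrs after plating (1.0×10^4 cells/well); label (0.25 μCi/well) given after 18 hrs of treatment, followed by 6 hrs further culture and scintillation counting of harvested cells.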

[2] = test system: p27 protein; test: p27 protein induction test (Western blotting); conditions: test substance (0.1 1M), 24 hrs, ACHN cells or HT-29 cells, compared to DMSO, n=2
Procedure: ACHN cells or HT-29 cells were cultured in a 6 well plate at 2.5×10^5 cells/1.8 mL/well for 24 hrs, a test substance ([…]) dissolved in DMSO was added. After 24 hrs, cells were detached using trypsin-EDTA (ethylene diamine tetraacetic acid) and solubilized with NuPAGE LDS sample buffer (Invitrogen). Using an RC DC protein assay kit (BIO-RAD), the protein concentration of the sample was quantitated, and a sample in an amount corresponding to 10 μg of BSA (bovine serum albumin) was analyzed by Western blotting using an anti-p27 antibody. The density of the band stained with the anti-p27 antibody was measured by a densitometer to quantify the amount of p27 protein. As a control, DMSO was used and the test was performed with n=2 and the average protein amount was determined.

[3] = test system: p15 protein; test: Evaluation of p15 induction activity (Western blotting); conditions: test substance 0.1 μM, 24 hrs, ACHN cells or HT-29 cells, compared to DMSO, n=2
Outline: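 p15 protein quantified by densitometry of anti-p15 Western blots (10 μg protein per lane, mean of n=2). Samples came from HT-29 or ACHN cells given 0.1 μM compound for 24 h after 24 h plating, with DMSO as control.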

[4] = test system: Renal cancer cell line ACHN cell; test: Growth inhibitory effect against cancer cell lines (3H-thymidine uptake), ACHN; conditions: Homo sapiens, ACHN
Outline: as §1

SMILES	IC50 [1] [nM]	IC50 [4] [nM]	fold induction at 0.1 µM [2]	fold induction at 0.1 µM [3]
Cn1c(=O)cc(Nc2ccc(Br)cc2F)c2c(=O)n(C3CC3)c(=O)n(-c3cccc(S(=O)(=O)N4CCCC4)c3)c21 [Example 1-318]	< 10	100 to 1000	≥ 1.5	≥ 1.5
CC(C)S(=O)(=O)Nc1cccc(-n2c(=O)n(C3CC3)c(=O)c3c(Nc4ccc(I)cc4F)cc(=O)n(C)c32)c1 [Example 1-319]	< 10	< 10	≥ 1.5	≥ 1.5
C#Cc1ccc(Nc2cc(=O)n(C)c3c2c(=O)n(C2CC2)c(=O)n3-c2cccc(NS(=O)(=O)CCC)c2)c(F)c1 [Example 1-320]	< 10	10 to 100	≥ 1.5	≥ 1.5
Cn1c(=O)cc(Nc2ccc(I)cc2Cl)c2c(=O)n(C3CC3)c(=O)n(-c3cccc(NS(C)(=O)=O)c3)c21 [Example 1-322]	< 10	10 to 100	≥ 1.5	≥ 1.5
CNC(=O)Nc1cccc(-n2c(=O)n(C3CC3)c(=O)c3c(Nc4ccc(Br)cc4F)cc(=O)n(C)c32)c1 [Example 1-325]	10 to 100	100 to 1000	≥ 1.5	≥ 1.5
CONC(=O)Nc1cccc(-n2c(=O)n(C3CC3)c(=O)c3c(Nc4ccc(Br)cc4F)cc(=O)n(C)c32)c1 [Example 1-327]	10 to 100	100 to 1000	≥ 1.5	≥ 1.5
Cn1c(=O)cc(Nc2ccc3sccc3c2)c2c(=O)n(C3CC3)c(=O)n(-c3ccccc3)c21 [Example 1-328]	10 to 100	100 to 1000	≥ 1.5	≥ 1.5
C#Cc1ccc(Nc2cc(=O)n(C)c3c2c(=O)n(C2CC2)c(=O)n3-c2cccc(NS(C)(=O)=O)c2)c(C)c1 [Example 1-336]	< 10	10 to 100	≥ 1.5	≥ 1.5
C#Cc1ccc(Nc2cc(=O)n(C)c3c2c(=O)n(C2CC2)c(=O)n3-c2cccc(NS(C)(=O)=O)c2)c(Cl)c1 [Example 1-337]	< 10	10 to 100	≥ 1.5	≥ 1.5
Cn1c(=O)cc(Nc2ccc(CCF)cc2F)c2c(=O)n(C3CC3)c(=O)n(-c3cccc(NS(C)(=O)=O)c3)c21 [Example 1-338]	< 10	10 to 100	≥ 1.5	≥ 1.5
Cc1cc(I)ccc1Nc1cc(=O)n(C)c2c1c(=O)n(C1CC1)c(=O)n2-c1cccc(NS(C)(=O)=O)c1 [Example 1-340]	< 10	10 to 100	≥ 1.5	≥ 1.5
CSc1ccc(Nc2cc(=O)n(C)c3c2c(=O)n(C2CC2)c(=O)n3-c2cccc(NC(C)=O)c2)c(F)c1 [Example 1-341]	< 10	10 to 100	≥ 1.5	≥ 1.5
CC(=O)Nc1cccc(-n2c(=O)n(C3CC3)c(=O)c3c(Nc4ccc(CCF)cc4F)cc(=O)n(C)c32)c1 [Example 1-342]	< 10	100 to 1000	≥ 1.5	≥ 1.5

Now from value to compound, other results behind:

IC50 [1] [nM]	IC50 [4] [nM]	SMILES	fold induction at 0.1 µM [2]	fold induction at 0.1 µM [3]
< 10	10 to 100	Cc1c(=O)n(C)c(Nc2ccc(Br)cc2F)c2c(=O)n(C3CC3)c(=O)n(-c3cccc(NS(C)(=O)=O)c3)c12 [Example 3-4]	≥ 1.5	≥ 1.5
< 10	< 10	Cc1c(=O)n(C)c(Nc2ccc(I)cc2F)c2c(=O)n(C3CC3)c(=O)n(-c3cccc(NS(C)(=O)=O)c3)c12 [Example 3-7, N-{3-[3-cyclopropyl-5-(2-fluoro-4-iodophenylamino)-6,8-dimethyl-2,4,7-trioxo-3,4,6,7-tetrahydro-2H-pyrido[4,3-d]pyrimidin-1-yl]phenyl}methanesulfonamide]	≥ 1.5	≥ 1.5
< 10	< 10	CCS(=O)(=O)Nc1cccc(-n2c(=O)n(C3CC3)c(=O)c3c(Nc4ccc(I)cc4F)n(C)c(=O)c(C)c32)c1 [Example 4-2]	≥ 1.5	≥ 1.5
< 10	10 to 100	C#Cc1ccc(Nc2c3c(=O)n(C4CC4)c(=O)n(-c4cccc(NS(=O)(=O)CC)c4)c3c(C)c(=O)n2C)c(F)c1 [Example 4-6]	≥ 1.5	≥ 1.5
< 10	10 to 100	CCc1ccc(Nc2c3c(=O)n(C4CC4)c(=O)n(-c4cccc(NC(C)=O)c4)c3c(C)c(=O)n2C)c(F)c1 [Example 4-9]	≥ 1.5	≥ 1.5
10 to 100	100 to 1000	CCS(=O)(=O)c1cccc(-n2c(=O)n(C3CC3)c(=O)c3c(Nc4ccc(Br)cc4F)n(C)c(=O)c(C)c32)c1 [Example 4-10]	≥ 1.5	≥ 1.5
< 10	10 to 100	C=Cc1ccc(Nc2c3c(=O)n(C4CC4)c(=O)n(-c4cccc(NC(C)=O)c4)c3c(C)c(=O)n2C)c(F)c1 [Example 4-11]	≥ 1.5	≥ 1.5
< 10	10 to 100	CCCCC(=O)NCCC(=O)Nc1cccc(-n2c(=O)n(C3CC3)c(=O)c3c(Nc4ccc(I)cc4F)n(C)c(=O)c(C)c32)c1 [Example 4-12]	≥ 1.5	≥ 1.5
< 10	10 to 100	CCn1c(=O)c2c(Nc3ccc(I)cc3F)n(C)c(=O)c(C)c2n(-c2cccc(NC(C)=O)c2)c1=O [Example 4-21]	≥ 1.5	≥ 1.5
10 to 100	100 to 1000	C#Cc1ccc(Nc2c3c(=O)n(CC)c(=O)n(-c4cccc(NC(C)=O)c4)c3c(C)c(=O)n2C)c(F)c1 [Example 4-43]	≥ 1.5	≥ 1.5
10 to 100	100 to 1000	CCc1ccc(Nc2c3c(=O)n(CC)c(=O)n(-c4cccc(NC(C)=O)c4)c3c(C)c(=O)n2C)c(F)c1 [Example 4-45]	≥ 1.5	≥ 1.5
< 10	10 to 100	C#Cc1ccc(Nc2c3c(=O)n(C)c(=O)n(-c4cccc(NC(C)=O)c4)c3c(C)c(=O)n2C)c(F)c1 [Example 4-48]	≥ 1.5	≥ 1.5
10 to 100	100 to 1000	CCc1ccc(Nc2c3c(=O)n(C)c(=O)n(-c4cccc(NC(C)=O)c4)c3c(C)c(=O)n2C)c(F)c1 [Example 4-50]	≥ 1.5	≥ 1.5
< 10	10 to 100	CCc1ccc(Nc2c3c(=O)n(C)c(=O)n(-c4cccc(NS(C)(=O)=O)c4)c3c(C)c(=O)n2C)c(F)c1 [Example 4-51]	≥ 1.5	≥ 1.5
10 to 100	100 to 1000	CCCc1ccc(Nc2c3c(=O)n(C4CC4)c(=O)n(-c4cccc(NC(C)=O)c4)c3c(C)c(=O)n2C)c(F)c1 [Example 4-53]	≥ 1.5	≥ 1.5
< 10	10 to 100	Cc1c(=O)n(C)c(Nc2ccc(I)cc2F)c2c(=O)n(C3CC3)c(=O)n(-c3cccc(S(C)(=O)=O)c3)c12 [Example 4-55]	≥ 1.5	≥ 1.5
10 to 100	100 to 1000	CC(=O)Nc1cccc(-n2c(=O)n(C3CC3)c(=O)c3c(Nc4ccc(C)cc4F)n(C)c(=O)c(C)c32)c1 [Example 4-56]	≥ 1.5	≥ 1.5
< 10	10 to 100	CCS(=O)(=O)c1cccc(-n2c(=O)n(C3CC3)c(=O)c3c(Nc4ccc(I)cc4F)n(C)c(=O)c(C)c32)c1 [Example 4-58]	≥ 1.5	≥ 1.5
< 10	10 to 100	Cc1c(=O)n(C)c(Nc2ccc(I)cc2F)c2c(=O)n(C3CC3)c(=O)n(-c3cccc(NS(=O)(=O)N4CCCCC4)c3)c12 [Example 4-59]	≥ 1.5	≥ 1.5
< 10	10 to 100	CCC(=O)Nc1cccc(-n2c(=O)n(C3CC3)c(=O)c3c(Nc4ccc(I)cc4F)n(C)c(=O)c(C)c32)c1 [Example 4-60]	≥ 1.5	≥ 1.5
10 to 100	10 to 100	CC(=O)Nc1cccc(-n2c(=O)n(C3CC3)c(=O)c3c(Nc4ccc(N(C)C)cc4F)n(C)c(=O)c(C)c32)c1 [Example 4-61]	≥ 1.5	≥ 1.5
10 to 100	100 to 1000	Cc1c(=O)n(C)c(Nc2ccc(I)cc2F)c2c(=O)n(C3CC3)c(=O)n(-c3cc(Cl)cc(NS(C)(=O)=O)c3)c12 [Example 4-64]	≥ 1.5	≥ 1.5
